# Data from patent US20250186410A1, “DUAL INHIBITORS OF TRYPTOPHAN DIOXYGENASES (IDO1 AND TDO) AND THEIR USE IN THERAPY” (ANTIDO THERAPEUTICS INTERNATIONAL SÀRL, priority 2022, published 2025).
# Columns and labels:
# [1] = biological target: Recombinant human IDO1 (rhIDO1) (Homo sapiens (Human), UniProt P14902); test: Enzymatic assay for IDO1 activity; assay type: biochemical; conditions: read-out: Isolated IDO1 Enayme Assay IC50
# Procedure: Recombinant human IDO1 (rhIDO1) was expressed and purified from cultures of EC538 strain of E. coli transformed with pREP4 and pQE9-IDO plasmid. Reaction mixes were set up in 384-well microplates containing 50 mM phosphate buffer, 10 mM ascorbic, 10 μM methylene blue, 100 μg/mL catalase, 80 μM TRP, 0.01% Tween 20 (v/v) mixed with rhIDO1 (15 μL) at a final concentration of 9 nM in a total volume of 30 μL assay medium. The plates were incubated at 37° C. for 30 min, and the enzymatic reaction was terminated by adding piperidine (200 mM) and heated at 65° C. for 20 min. Fluorescence intensity was read at λex 400 nm and λem 500 nm. Test compounds were dissolved in 100% DMSO and pre-diluted in assay medium prior to adding rhIDO1. IDO1 inhibition (%) was calculated as
# All experiments were carried out in triplicates, and statistical Analyses were conducted in Prism v5 (Graphpad Software, Inc., La Jolla, CA, USA).
# [2] = test system: lung cancer cell line ALC (cisplatin-resistant); test: Growth inhibition and cytotoxicity assay (trypan blue), ALC cells; assay type: cell-based; conditions: Homo sapiens
# Procedure: (§1) In this study 3 different human-derived lung cancer cell lines were exposed to vehicle control (parental cells B, S and A) or long-term incubation with cisplatin (BC, SC and ALC cells). Long-term incubation with cisplatin induced cisplatin-resistance in the BC, SC and ALC cell lines.
# (§2) Cells were seeded in 24-well dishes and treated with various concentrations of inhibitors (i.e. Epacadostat or AT-0174). Briefly, the culture media as well as the trypsinized cells were collected and this mixture was centrifuged at 400×g for 5 min. The supernatant was discarded, re-suspended in 1 mL of Hank's buffer, and assayed for live cells and death cells using trypan blue exclusion method.
# (§3) Data from in vitro experiments were performed from three separate biological replicates which were isolated and analyzed in technical triplicates. Separate measurements using the two-tailed t-test and the results were expressed as mean±standard deviation.
# [3] = test system: lung cancer cell line S (cisplatin-sensitive); test: Growth inhibition and cytotoxicity assay (trypan blue), S cells; assay type: cell-based; conditions: Homo sapiens
# Procedure: as §1, §2, §3
# [4] = test system: lung cancer cell line A (cisplatin-sensitive); test: Growth inhibition and cytotoxicity assay (trypan blue), A cells; assay type: cell-based; conditions: Homo sapiens
# Procedure: as §1, §2, §3
# [5] = test system: lung cancer cell line B (cisplatin-sensitive); test: Growth inhibition and cytotoxicity assay (trypan blue), B cells; assay type: cell-based; conditions: Homo sapiens
# Procedure: as §1, §2, §3
# Recombinant human IDO1 (rhIDO1), sequence (P14902 whole entry): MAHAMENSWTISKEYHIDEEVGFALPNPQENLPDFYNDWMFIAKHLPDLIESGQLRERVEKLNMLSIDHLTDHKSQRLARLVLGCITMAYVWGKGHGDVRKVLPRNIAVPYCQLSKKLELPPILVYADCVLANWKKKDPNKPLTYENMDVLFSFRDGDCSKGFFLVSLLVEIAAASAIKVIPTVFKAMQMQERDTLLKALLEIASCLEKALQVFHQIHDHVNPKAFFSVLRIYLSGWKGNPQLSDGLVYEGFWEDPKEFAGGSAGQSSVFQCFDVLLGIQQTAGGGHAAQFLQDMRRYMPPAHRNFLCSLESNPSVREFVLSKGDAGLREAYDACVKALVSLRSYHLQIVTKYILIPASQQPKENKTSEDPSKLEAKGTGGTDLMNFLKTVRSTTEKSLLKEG
compound,measurement,setting,value
"Nc1noc2nc(Cl)c(F)cc12 [Compound 66, 6-Chloro-5-fluoroisoxazolo[5,4-b]pyridin-3-amine]",IC50,[1],< 1000 nM
same,viability at 12.5 µM,[2]; 12.5 μM AT-0174,76.7 ± 4.2%
same,viability at 25 µM,[2]; 25.0 μM AT-0174,62.5 ± 4.9%
same,viability at 50 µM,[2]; 50.0 μM AT-0174,67.3 ± 13.4%
same,viability at 12.5 µM,[3]; 12.5 μM AT-0174,78 ± 7.1%
same,viability at 25 µM,[3]; 25.0 μM AT-0174,96.8 ± 19.1%
same,viability at 50 µM,[3]; 50.0 μM AT-0174,70.2 ± 14%
same,viability at 12.5 µM,[4]; 12.5 μM AT-0174,92.8 ± 8.5%
same,viability at 25 µM,[4]; 25.0 μM AT-0174,75.1 ± 14.1%
same,viability at 50 µM,[4]; 50.0 μM AT-0174,74.4 ± 7.1%
same,viability at 12.5 µM,[5]; 12.5 μM AT-0174,84.8 ± 11.3%
same,viability at 25 µM,[5]; 25.0 μM AT-0174,97.9 ± 2.1%
same,viability at 50 µM,[5]; 50.0 μM AT-0174,92.2 ± 15.6%
